The values below are quoted from earlier work in patent US9272036B2, “Carbon dioxide, saline and additional active nasal delivery methods and treatments” (CLOVER HILL HEALTHCARE, INC., priority 2012, dated 2016).

SMILES strings stand for the structures.

This data set has as its system subjects with SAR.

Turning to `O=C=O` [CO(2), carbon dioxide], under “after pretreatment with CO(2), increased significantly with sham treatment”, the “histamine levels in ipsilateral nasal secretions” value was “did not increase”. For the same molecule, where the note is “during 20-second intranasal exposure”, the “sensation reported by subjects during exposure” value was “transient burning sensation”. The ipsilateral secretion weights entry (nasal allergen challenge 30 minutes after 20-second CO(2) exposure, compared with no treatment) is given as “numerically reduced”. Besides, the “bilateral runny nose symptoms” value (nasal allergen challenge 30 minutes after 20-second CO(2) exposure, compared with no treatment, p=0.01) was “significant reduction”. Under “nasal allergen challenge 30 minutes after 20-second CO(2) exposure, compared with no treatment, p=0.04”, the “contralateral secretion weights (reflex secretory response, primary outcome)” value is “significant reduction”. For the same molecule, the sneezes entry (nasal allergen challenge (grass or ragweed) 30 minutes after 20-second CO(2) exposure, compared with no treatment, p=0.05) is “significant reduction”. For the same molecule, the “acute response to allergen challenge (overall)” value (treatment with nasal CO(2)) is “partial reduction”.
